Measurements as given in ChEMBL document CHEMBL2401682, “Evaluation of Jatropha isabelli natural products and their synthetic analogs as potential antimalarial therapeutic agents” (Eur J Med Chem, 2013).
Converted amounts (≈) assume the structure as drawn.

What was measured:
[1] = Solubility of the compound; format: physicochemical
[2] = Permeability of the compound by PAMPA; format: ADME; conditions: read-out: permeability
BJ = assay: Cytotoxicity against human BJ cells after 72 hrs by celltiter-glo assay; format: cell-based
HEK293 = assay: Cytotoxicity against HEK293 cells after 72 hrs by celltiter-glo assay; format: cell-based; conditions: Homo sapiens, HEK293, 72 h
Raji = assay: Cytotoxicity against human Raji cells after 72 hrs by celltiter-glo assay; format: cell-based
HepG2 = assay: Cytotoxicity against human HepG2 cells after 72 hrs by celltiter-glo assay; format: cell-based; conditions: HepG2, 72 h
Plasmodium falciparum [3] = assay: Antimalarial activity against chloroquine and pyrimethamine-resistant Plasmodium falciparum K1 infected in O-positive erythrocytes assessed as parasite growth inhibition after 72 hrs by DNA staining-based assay; format: functional, organism-based; conditions: K1, 72 h
Plasmodium falciparum [4] = assay: Antimalarial activity against chloroquine-sensitive Plasmodium falciparum 3D7 infected in O-positive erythrocytes assessed as parasite growth inhibition after 72 hrs by DNA staining-based assay; format: functional, organism-based; conditions: 3D7, 72 h
[5] = Half life in mouse liver microsomes; format: ADME, Microsome
[6] = Half life in human plasma; format: ADME, cell-free
[7] = Plasma protein binding in human; format: ADME, cell-free; conditions: read-out: PPB (converted)
[8] = Half life in human liver microsomes; format: ADME, Microsome
[9] = Efflux ratio of permeability in human Caco2 cells; format: ADME, cell-based; conditions: Caco-2
[10] = Plasma protein binding in mouse; format: ADME, cell-free; conditions: read-out: PPB (converted)
[11] = Half life in mouse plasma; format: ADME, cell-free
[12] = Solubility of the compound at pH 3 to 7; format: physicochemical; conditions: buffer

| Structure (SMILES) | solubility [1] [µg/mL] | Papp [2] [×10⁻⁶ cm/s] | EC50 (BJ) [µM] | EC50 (HEK293) [µM] | EC50 (Raji) [µM] | EC50 (HepG2) [µM] | EC50 (Plasmodium falciparum [3]) [µM] | EC50 (Plasmodium falciparum [4]) [µM] | half-life [5] [min] | half-life [6] [min] | fraction unbound [7] | half-life [8] [min] | efflux ratio [9] | fraction unbound [10] | half-life [11] [min] | solubility [12] [µg/mL] |
| --- | --- | --- | --- | --- | --- | --- | --- | --- | --- | --- | --- | --- | --- | --- | --- | --- |
| CC1=C2CC(C)(C)/C(c3ccc(C(F)(F)F)cc3)=C/C(=O)/C(C)=C\C3=C[C@H](C)C[C@]3(O2)C1=O | 17 (≈ 37.2 µM) | 106 | 26 | 26 | 26 | 26 | 5.88 | 6.08 | – | – | – | – | – | – | – | – |
| CC1=C2CC(C)(C)/C=C/C(=O)/C(C)=C\C3=C[C@H](C)C[C@]3(O2)C1=O [JATROPHONE] | – | 525 | 1.93 | 6.09 | 26 | 6.09 | 5.41 | 15 | 5.4 | 7.8 | 0.26 | 6 | 1.5 | 0.26 | 12.6 | 20 (≈ 64 µM) |
